Measurements reported in US12545685B2 (Daiichi Sankyo Company, Limited, priority 2011, dated 2026).

Assays:
[1] = system: human lung cancer-derived cell line NCI-H460 having wild-type p53; assay: Cell growth inhibition assay (MTT); format: cell-based; conditions: 72 h, NCI-H460 cells, 3 days culture, values given as ranges, read-out: 50% growth inhibition concentration (GI50 value)
Description: A cell growth inhibition assay was conducted using a human lung cancer-derived cell line NCI-H460 having wild-type p53.
NCI-H460 cells were suspended in a medium (RPMI1640 medium containing 10% fetal bovine serum) and the suspension was added in an amount of 500 cells/150 μl/well to a 96-well plate. A test compound was dissolved in DMSO and this solution was diluted with medium to prepare a sample solution (DMSO concentration: 1% or lower). On the next day, medium nonsupplemented with the test compound, or the sample solution, was added in an amount of 50 μl/well. Cells were then cultured at 37° ° C. for 3 days in a 5% CO2 atmosphere.
An MTT assay was conducted immediately after the nonsupplemented medium or the sample solution was added. Another MTT assay was conducted after culturing the cells for 3 days. The MIT assays were conducted as shown below.
A 5 mg/ml MTT (3-(4,5-dimethylthiazol-2-yl)-2,5-diphenyltetrazolium bromide, Sigma-Aldrich Co., M-2128) solution was prepared using a phosphate buffer solution (Dulbecco's Phosphate-buffered Saline). This MIT solution was added in an amount of 20 μl/well. Then the plate was cultured at 37° ° C. for 4 hours in a 5% CO2 atmosphere. The plate was centrifuged at 1200 rpm for 5 minutes and then the culture supernatant was removed by aspiration using a dispenser. DMSO was added in an amount of 150 μl/well to dissolve generated formazan. The plate was stirred using a plate mixer for uniform color development from each well. The absorbance of each well was measured at OD 540 nm and at a reference OD (660 nm) using a plate reader (SpectraMax PLUS384, Molecular Devices, CA, USA).
The OD value measured on the day of adding the sample solution was defined as S. The OD value measured three days after addition of the sample solution was defined as T. The OD value measured three days after addition of the DMSO dilution was defined as C. T/C (%) was determined at each concentration according to the formula shown below in order to prepare a dose response curve, from which 50% growth inhibition concentration (GI50 value) was calculated.

[2] = target: T1, Mdm2/p53 binding (GST-Mdm2 / His-p53) (Homo sapiens, UniProt Q00987, L33E); assay: Mdm2/p53 binding assay (HTRF, His-p53 and GST-Mdm2); conditions: His-p53 (aa 1-132) and GST-Mdm2 (aa 25-108, L33E) 6.25 nM each; 25°C, 1 hour; values given as ranges
T1 construct: Mdm2 partial protein having Mdm2 amino acids at positions 25 to 108
T1 sequence (Q00987 25-108 L33E): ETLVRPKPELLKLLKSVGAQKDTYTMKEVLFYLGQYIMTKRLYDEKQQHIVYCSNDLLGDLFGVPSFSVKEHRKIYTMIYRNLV
How it was run: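 Binding was detected by HTRF (ex 320 nm, em 620/665 nm) after 1 h at 25 °C, using Eu-cryptate anti-GST and XL665 anti-His antibodies. The protein pair was GST-Mdm2 (residues 25–108, L33E) with His-p53 (residues 1–132), each 6.25 nM in the protein dilution. T/C used no-compound control and no-p53 background, and IC50 came from sigmoid fitting.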

| GI50 [1] | IC50 [2] | SMILES |
| --- | --- | --- |
| 1 to 5 µM | 0.001 to 0.05 µM | CC1(C)CCC2(CC1)N[C@@H](C(=O)N[C@H]1CO[C@H](CO)[C@@H](O)C1)[C@H](c1cccc(Cl)c1F)[C@]21C(=O)Nc2nc(Cl)ccc21 [Example 30, (3′R, 4′S,5′R)-6″-chloro-4′-(3-chloro-2-fluorophenyl)-N-[(3R,5S,6R)-5-hydroxy-6-(hydroxymethyl)tetrahydro-2H-pyran-3-yl]-4,4-dimethyl-2″-oxo-1″,2″-dihydrodispiro[cyclohexane-1,2′-pyrrolidine-3′,3″-pyrrolo[2,3-b]pyridine]-5′-carboxamide] |
| 0.1 to 0.5 µM | 0.001 to 0.05 µM | CC1(C)CCC2(CC1)N[C@@H](C(=O)N[C@@H]1CC[C@@H](c3nnco3)OC1)[C@H](c1ccnc(Cl)c1F)[C@]21C(=O)Nc2cc(Cl)ccc21 [Example 34, (3′R, 4′S,5′R)-6″-chloro-4′-(2-chloro-3-fluoropyridin-4-yl)-4,4-dimethyl-N-[(3R,6S)-6-(1,3,4-oxadiazol-2-yl)tetrahydro-2H-pyran-3-yl]-2″-oxo-1″,2″-dihydrodispiro[cyclohexane-1,2′-pyrrolidine-3′,3″-indole]-5′-carboxamide] |
| < 0.1 µM | 0.05 to 0.1 µM | CC1(C)CCC2(CC1)N[C@@H](C(=O)N[C@H]1CC[C@H](c3n[nH]c(=O)o3)CC1)[C@H](c1ccnc(Cl)c1F)[C@]21C(=O)Nc2cc(Cl)ccc21 [Example 35, (3′R, 4′S, S′R)-6″-chloro-4′-(2-chloro-3-fluoropyridin-4-yl)-4,4-dimethyl-2″-oxo-N-[trans-4-(5-oxo-4,5-dihydro-1,3,4-oxadiazol-2-yl)cyclohexyl]-1″,2″-dihydrodispiro[cyclohexane-1,2′-pyrrolidine-3′,3″-indole]-5′-carboxamide] |
| 0.1 to 0.5 µM | 0.001 to 0.05 µM | O=C(N[C@@H]1CC[C@@H](CO)OC1)[C@@H]1NC2(CC(CF)(CF)C2)[C@@]2(C(=O)Nc3cc(Cl)ccc32)[C@H]1c1cccc(Cl)c1F [Example 38, (3′R, 4′S,5′R)-6″-chloro-4′-(3-chloro-2-fluorophenyl)-3,3-bis(fluoromethyl)-N-[(3R,6S)-6-(hydroxymethyl)tetrahydro-2H-pyran-3-yl]-2″-oxo-1″,2″-dihydrodispiro [cyclobutane-1,2′-pyrrolidine-3′,3″-indole]-5′-carboxamide] |
| 0.5 to 1 µM | 0.001 to 0.05 µM | CC1(C)CCC2(CC1)N[C@@H](C(=O)N[C@H]1CC[C@@](O)(CO)CC1)[C@H](c1ccnc(Cl)c1F)[C@]21C(=O)Nc2cc(Cl)ccc21 [Example 40, (3′R, 4′S,5R)-6″-chloro-4′-(2-chloro-3-fluoropyridin-4-yl)-N-[trans-4-hydroxy-4-(hydroxymethyl)cyclohexyl]-4,4-dimethyl-2″-oxo-1″,2″-dihydrodispiro[cyclohexane-1,2′-pyrrolidine-3′,3″-indole]-5′-carboxamide] |
| 0.5 to 1 µM | 0.05 to 0.1 µM | CC1(C)CCC2(CC1)N[C@@H](C(=O)N[C@@H]1CC[C@@H](C(C)(C)O)OC1)[C@H](c1ccnc(Cl)c1F)[C@]21C(=O)Nc2nc(Cl)ccc21 [Example 47, (3′R, 4′S,5′R)-6″-chloro-4′-(2-chloro-3-fluoropyridin-4-yl)-N-[(3R,6S)-6-(1-hydroxy-1-methylethyl)tetrahydro-2H-pyran-3-yl]-4,4-dimethyl-2″-oxo-1″,2″-dihydrodispiro[cyclohexane-1,2′-pyrrolidine-3′,3″-pyrrolo[2,3-b]pyridine]-5′-carboxamide] |

More lines, now with the values behind:

| SMILES | GI50 [1] | IC50 [2] |
| --- | --- | --- |
| CC1(C)CCC2(CC1)N[C@@H](C(=O)N[C@@H]1CC[C@@H](CO)OC1)[C@H](c1ccnc(Cl)c1)[C@]21C(=O)Nc2cc(Cl)ccc21 [Example 13, (3′R, 4′R, 5′R)-6″-chloro-4′-(2-chloropyridin-4-yl)-N-[(3R,6S)-6-(hydroxymethyl)tetrahydro-2H-pyran-3-yl]-4,4-dimethyl-2″-oxo-1″,2″-dihydrodispiro[cyclohexane-1,2′-pyrrolidine-3′,3″-indole]-5′-carboxamide] | 0.1 to 0.5 µM | 0.001 to 0.05 µM |
| CC1(C)CCC2(CC1)N[C@@H](C(=O)N[C@H]1CC[C@H](O)CC1)[C@H](c1cc(F)cc(Cl)c1)[C@]21C(=O)Nc2cc(Cl)ccc21 [Example 14, (3′R, 4′R, S′R)-6″-chloro-4′-(3-chloro-5-fluorophenyl)-N-(trans-4-hydroxycyclohexyl)-4,4-dimethyl-2″-oxo-1″,2″-dihydrodispiro[cyclohexane-1,2′-pyrrolidine-3′,3″-indole]-5′-carboxamide] | 0.5 to 1 µM | 0.1 to 0.5 µM |
| CC1(C)CCC2(CC1)N[C@@H](C(=O)N[C@@H]1CC[C@@H](C(C)(C)O)OC1)[C@H](c1ccnc(Cl)c1F)[C@]21C(=O)Nc2cc(Cl)ccc21 [Example 17, (3′R, 4′S,5′R)-6″-chloro-4′-(2-chloro-3-fluoropyridin-4-yl)-N-[(3R,6S)-6-(1-hydroxy-1-methylethyl)tetrahydro-2H-pyran-3-yl]-4,4-dimethyl-2″-oxo-1″,2″-dihydrodispiro[cyclohexane-1,2′-pyrrolidine-3′,3″-indole]-5′-carboxamide] | 0.1 to 0.5 µM | 0.05 to 0.1 µM |
| CC1(C)CCC2(CC1)N[C@@H](C(=O)N[C@@H]1CC[C@@H](CO)OC1)[C@H](c1ccnc(Cl)c1F)[C@]21C(=O)Nc2cc(Cl)ccc21 [Example 20, (3′R, 4′S,5′R)-6″-chloro-4′-(2-chloro-3-fluoropyridin-4-yl)-N-[(3R,6S)-6-(hydroxymethyl)tetrahydro-2H-pyran-3-yl]-4,4-dimethyl-2″-oxo-1″,2″-dihydrodispiro[cyclohexane-1,2′-pyrrolidine-3′,3″-indole]-S′-carboxamide] | < 0.1 µM | 0.001 to 0.05 µM |
| CC1(C)CCC2(CC1)N[C@@H](C(=O)N[C@@H]1CC[C@@H](CO)OC1)[C@H](c1ccnc(Cl)c1F)[C@]21C(=O)Nc2cc(Cl)c(F)cc21 [Example 23, (3′R, 4′S,5′R)-6″-chloro-4′-(2-chloro-3-fluoropyridin-4-yl)-5″-fluoro-N-[(3R,6S)-6-(hydroxymethyl)tetrahydro-2H-pyran-3-yl]-4,4-dimethyl-2″-oxo-1″,2″-dihydrodispiro[cyclohexane-1,2′-pyrrolidine-3′,3″-indole]-5′-carboxamide] | 0.1 to 0.5 µM | 0.001 to 0.05 µM |
| CC1(C)CCC2(CC1)N[C@@H](C(=O)N[C@@H]1CC[C@@H](CO)OC1)[C@H](c1ccnc(Cl)c1F)[C@]21C(=O)Nc2nc(Cl)ccc21 [Example 25, (3′R, 4′S,5′R)-6″-chloro-4′-(2-chloro-3-fluoropyridin-4-yl)-N-[(3R,6S)-6-(hydroxymethyl)tetrahydro-2H-pyran-3-yl]-4,4-dimethyl-2″-oxo-1″,2″-dihydrodispiro[cyclohexane-1,2′-pyrrolidine-3′,3″-pyrrolo[2,3-b]pyridine]-5′-carboxamide] | 0.5 to 1 µM | 0.001 to 0.05 µM |
| CC1(C)CCC2(CC1)N[C@@H](C(=O)N[C@@H]1CC[C@@H](CO)OC1)[C@H](c1cc(Cl)cc(CO)c1)[C@]21C(=O)Nc2cc(Cl)ccc21 [Example 28, (3′R, 4′R, 5′R)-6″-chloro-4′-[3-chloro-5-(hydroxymethyl)phenyl]-N-[(3R,6S)-6-(hydroxymethyl)tetrahydro-2H-pyran-3-yl]-4,4-dimethyl-2″-oxo-1″,2″-dihydrodispiro[cyclohexane-1,2′-pyrrolidine-3′,3″-indole]-5′-carboxamide] | 1 to 5 µM | 0.001 to 0.05 µM |
| CC1(C)CCC2(CC1)N[C@@H](C(=O)N[C@H]1CO[C@H](CO)[C@@H](O)C1)[C@H](c1ccnc(Cl)c1F)[C@]21C(=O)Nc2cc(Cl)ccc21 [Example 29] | 1 to 5 µM | 0.001 to 0.05 µM |
